Laboratory results from patent US7901712B2, “Gliclazide nanosphere and manufacturing method therefor and application thereof” (Kaoshiung Medical University, priority 2006, dated 2011).

Experiments:
[1] = In vitro dissolution test, USP 24 paddle apparatus; type: physicochemical; conditions: 37°C; for DP (dissolved percentage): deionized water
Protocol: According to the USP 24 paddle apparatus, in vitro dissolution tests are performed with Hanson SR8 Plus (Chatsworth, USA). Three samples containing 80 mg of GL pure drug, GL solid complexes with an equivalent amount of GLs and GL nanospheres with an equivalent amount of GLs are poured separately into 900 ml deionized water at 37±0.5° C. with stirring rate at 100 rpm. Afterwards, 0.2 ml of each sample was withdrawn respectively at 1, 3, 5, 10, 15, 30, 60 and 120 min by the Waters transfer module (Milford, USA). Subsequently, the concentration of the samples was assayed using the HPLC method. The dissolution profiles are evaluated by the dissolution efficiency (DE) parameter (Khan, 1975) and the dissolved percentage (DP). The DE of GL pure drug, GL nanospheres and GL solid complex are calculated from the following equation (3).
wherein, y represents the percentage of dissolved product;
t1 and t2 represents the two different time points
y100 represents the maximum percentage of the dissolved sample

[2] = Particle size measurement by photon correlation spectroscopy; type: physicochemical; conditions: PCS, diluted in ethylene glycol, n = 3
Protocol: The average particle size of GL nanoparticles, GL solid complexes, the β-CD and the gliclazide pure drug were measured by the method of photon correlation spectroscopy (PCS) using Malvern Zetasizer 3000HSA (Malvern Worcestershire, UK). Prior to measurements, about 50 mg of each sample were diluted with 100 ml of ethylene glycol. The sizes of the above-mentioned four particle distributions were estimated by setting the intensity of the scattered light at λ=750 nm and the scattering angle at θ=90°. The background medium, i.e. the ethylene glycol (η=16.1 mPa·s) with the refractive index thereof being 1.431.

[3] = 5 min, 900 ml deionized water, 100 rpm, 80 mg GL equivalent, n = 6
[4] = 30 min, 900 ml deionized water, 100 rpm, n = 6
[5] = 60 min, 900 ml deionized water, 100 rpm, n = 6

Compound	DE5 (dissolution efficiency) [1, 3]	DP5 (dissolved percentage) [1, 3]	DE30 (dissolution efficiency) [1, 4]	DP30 (dissolved percentage) [1, 4]	DE60 (dissolution efficiency) [1, 5]	DP60 (dissolved percentage) [1, 5]	DP (dissolved percentage) ([1]; after 60 minutes) [%]	DP (dissolved percentage) ([1]; after five minutes) [%]	Mean size ± S.D. [2] [μm]
Cc1ccc(S(=O)(=O)NC(=O)NN2CC3CCCC3C2)cc1 (stereo not shown) [GL]	0.0129	1.44	0.0229	3.84	0.0416	8.23	8.23	1.44	47.56 ± 2.11
OC[C@H]1O[C@@H]2O[C@H]3[C@H](O)[C@@H](O)[C@@H](O[C@H]4[C@H](O)[C@@H](O)[C@@H](O[C@H]5[C@H](O)[C@@H](O)[C@@H](O[C@H]6[C@H](O)[C@@H](O)[C@@H](O[C@H]7[C@H](O)[C@@H](O)[C@@H](O[C@H]8[C@H](O)[C@@H](O)[C@@H](O[C@H]1[C@H](O)[C@H]2O)O[C@@H]8CO)O[C@@H]7CO)O[C@@H]6CO)O[C@@H]5CO)O[C@@H]4CO)O[C@@H]3CO [β-CD]	–	–	–	–	–	–	–	–	161.03±3.12
